We go through 30 compounds from patent publication US11547712B2, “Kinase inhibitor compounds and compositions and methods of use” (ICAHN SCHOOL OF MEDICINE AT MOUNT SINAI, priority 2017, dated 2023).

Where two headings read alike, the source gives them in different places.

For orientation: inhibition means how much of the control response was suppressed. One may read the Kd as the equilibrium constant for the complex coming apart. Read a high Kd as a looser complex.

Experiment [1] concerns the target T1, DYRK1A (Homo sapiens (Human), UniProt Q13627). Briefly: FRET-based LanthaScreen Eu Kinase Binding Assay (Life Technologies). The settings on record: read-out: Screening (30 μM) LifeTech: % DYRK1A inhibition at 30 μM. The procedure: (§1) DYRK1A Binding Assays. Compounds were tested for DYRK1A binding activity at two different commercial kinase profiling services, Life Technologies and DiscoverX. […] Compounds were screened for DYRK1A activity at a single concentration of 30 μM in duplicates.
Background: Time-resolved FRET reads energy transfer from a long-lived donor to a nearby acceptor.

Experiment [2] deals with T1, DYRK1A. Description: KINOMEscan Assay (DiscoverX), DYRK1A binding. To be noted: for remaining binding at 30 µM: read-out: Screening (30 μM) DiscoverX: primary screen binding interactions, % DMSO Ctrl; for Kd: eleven serial three fold dilutions (in duplicate). As for the experimental part: as §1

Take `CNC1=NN=C(c2ccc3[nH]c(=O)[nH]c3c2)CS1` [Compound 3-2, N-methyl-5-(benzo[d]imidazol-2(3H)-one)-6H-1,3,4-thiadiazin-2-amine]: the inhibition at 30 µM at DYRK1A [1] (30 μM single concentration) amounted to 63%. Besides, on DYRK1A [2], the remaining binding at 30 µM came out at 0.5%.

For `CCNC1=NN=C(c2ccc3[nH]c(=O)[nH]c3c2)CS1` [Compound 3-3, N-ethyl-5-(benzo[d]imidazol-2(3H)-one)-6H-1,3,4-thiadiazin-2-amine], the inhibition at 30 µM on DYRK1A [1] (30 μM single concentration) stood at 69%. In addition, on DYRK1A [2], the remaining binding at 30 µM came out at 0%.

`CCCNC1=NN=C(c2ccc3[nH]c(=O)[nH]c3c2)CS1` [Compound 3-4, N-propyl-5-(benzo[d]imidazol-2(3H)-one)-6H-1,3,4-thiadiazin-2-amine]: the inhibition at 30 µM at DYRK1A [1] (30 μM single concentration) is 48%. Also, the remaining binding at 30 µM on DYRK1A [2] amounted to 2.9%.

As to `CCCCNC1=NN=C(c2ccc3[nH]c(=O)[nH]c3c2)CS1` [Compound 3-5, N-butyl-5-(benzo[d]imidazol-2(3H)-one)-6H-1,3,4-thiadiazin-2-amine], on DYRK1A [1] (30 μM single concentration), the inhibition at 30 µM stood at 24%. Further, the remaining binding at 30 µM on DYRK1A [2] is 0%.

`CC(C)NC1=NN=C(c2ccc3[nH]c(=O)[nH]c3c2)CS1` [Compound 3-6, N-isopropyl-5-(benzo[d]imidazol-2(3H)-one)-6H-1,3,4-thiadiazin-2-amine]: on DYRK1A [1] (30 μM single concentration), the inhibition at 30 µM is 59%. Also, the remaining binding at 30 µM on DYRK1A [2] was determined as 2.3%.

For the compound `CC(C)(C)NC1=NN=C(c2ccc3[nH]c(=O)[nH]c3c2)CS1` [Compound 3-7, N-t-butyl-5-(benzo[d]imidazol-2(3H)-one)-6H-1,3,4-thiadiazin-2-amine], the inhibition at 30 µM at DYRK1A [1] (30 μM single concentration) was 46%. Moreover, at DYRK1A [2], the remaining binding at 30 µM was 0.75%.

As to `O=c1[nH]c2ccc(C3=NN=C(NCc4ccc(Cl)cc4)SC3)cc2[nH]1` [Compound 3-12, N-(4-chlorobenzyl)-5-(benzo[d]imidazol-2(3H)-one)-6H-1,3,4-thiadiazin-2-amine], the inhibition at 30 µM on DYRK1A [1] was determined as 93%. Besides, at DYRK1A [2], binding was put at a Kd of 185 nM and the remaining binding at 30 µM came out at 19%.

`O=c1[nH]c2ccc(C3=NN=C(NCc4cccc(Cl)c4)SC3)cc2[nH]1` [Compound 3-13, N-(3-chlorobenzyl)-5-(benzo[d]imidazol-2(3H)-one)-6H-1,3,4-thiadiazin-2-amine] registered a Kd on DYRK1A [2] of 420 nM.

On to `O=c1[nH]c2ccc(C3=NN=C(NCc4ccccc4Cl)SC3)cc2[nH]1` [Compound 3-14, N-(2-chlorobenzyl)-5-(benzo[d]imidazol-2(3H)-one)-6H-1,3,4-thiadiazin-2-amine], for which the dissociation constant Kd on DYRK1A [2] was found to be 840 nM.

Turning to `O=c1[nH]c2ccc(C3=NN=C(NCc4ccc(F)cc4)SC3)cc2[nH]1` [Compound 3-15, N-(4-fluorobenzyl)-5-(benzo[d]imidazol-2(3H)-one)-6H-1,3,4-thiadiazin-2-amine], the inhibition at 30 µM on DYRK1A [1] turned out to be 95%. For the same compound, the remaining binding at 30 µM at DYRK1A [2] was found to be 8.9%.

`O=c1[nH]c2ccc(C3=NN=C(NCc4cccc(F)c4)SC3)cc2[nH]1` [Compound 3-16, N-(3-fluorobenzyl)-5-(benzo[d]imidazol-2(3H)-one)-6H-1,3,4-thiadiazin-2-amine] showed a Kd at DYRK1A [2] of 900 nM.

Turning to `O=c1[nH]c2ccc(C3=NN=C(NCc4ccc(C(F)(F)F)cc4)SC3)cc2[nH]1` [Compound 3-18, N-(4-trifluoromethylbenzyl)-5-(benzo[d]imidazol-2(3H)-one)-6H-1,3,4-thiadiazin-2-amine], the inhibition at 30 µM on DYRK1A [1] was found to be 53%. Besides, the remaining binding at 30 µM on DYRK1A [2] came to 40%.

`O=c1[nH]c2ccc(C3=NN=C(NCc4cccc(C(F)(F)F)c4)SC3)cc2[nH]1` [Compound 3-19, N-(3-trifluoromethylbenzyl)-5-(benzo[d]imidazol-2(3H)-one)-6H-1,3,4-thiadiazin-2-amine]: the inhibition at 30 µM on DYRK1A [1] is 20%. The remaining binding at 30 µM on DYRK1A [2] was 23%.

In the case of `O=c1[nH]c2ccc(C3=NN=C(NCc4ccccc4C(F)(F)F)SC3)cc2[nH]1` [Compound 3-20, N-(2-trifluoromethylbenzyl)-5-(benzo[d]imidazol-2(3H)-one)-6H-1,3,4-thiadiazin-2-amine], the inhibition at 30 µM at DYRK1A [1] stood at 24%. Also, at DYRK1A [2], the Kd amounted to 7700 nM and the remaining binding at 30 µM was found to be 38%.

With `N#Cc1ccc(CNC2=NN=C(c3ccc4[nH]c(=O)[nH]c4c3)CS2)cc1` [Compound 3-21, N-(4-cyanobenzyl)-5-(benzo[d]imidazol-2(3H)-one)-6H-1,3,4-thiadiazin-2-amine], on DYRK1A [1], the inhibition at 30 µM worked out at 47%. Besides, the remaining binding at 30 µM on DYRK1A [2] worked out at 12%.

Take `N#Cc1cccc(CNC2=NN=C(c3ccc4[nH]c(=O)[nH]c4c3)CS2)c1` [Compound 3-22, N-(3-cyanobenzyl)-5-(benzo[d]imidazol-2(3H)-one)-6H-1,3,4-thiadiazin-2-amine]: on DYRK1A [1], the inhibition at 30 µM was determined as 69%. In addition, the remaining binding at 30 µM on DYRK1A [2] amounted to 12%.

Take `O=c1[nH]c2ccc(C3=NN=C(NCc4cccnc4)SC3)cc2[nH]1` [Compound 3-23, N-(pyridine-3yl)methyl-5-(benzo[d]imidazol-2(3H)-one)-6H-1,3,4-thiadiazin-2-amine]: the inhibition at 30 µM on DYRK1A [1] was 74%. Moreover, at DYRK1A [2], the Kd is 860 nM and the remaining binding at 30 µM stood at 4.2%.

Consider `O=c1[nH]c2ccc(C3=NN=C(NCc4ccncc4)SC3)cc2[nH]1` [Compound 3-24, N-(pyridine-4yl)methyl-5-(benzo[d]imidazol-2(3H)-one)-6H-1,3,4-thiadiazin-2-amine], for which the Kd on DYRK1A [2] amounted to 2200 nM.

As to `CC(NC1=NN=C(c2ccc3[nH]c(=O)[nH]c3c2)CS1)c1ccccc1` (centres unmarked) [Compound 3-25, N-(1-phenylethyl)-5-(benzo[d]imidazol-2(3H)-one)-6H-1,3,4-thiadiazin-2-amine], the inhibition at 30 µM on DYRK1A [1] was 57%. Besides, the remaining binding at 30 µM on DYRK1A [2] is 3.7%.

`CC(NC1=NN=C(c2ccc3[nH]c(=O)[nH]c3c2)CS1)c1ccc(F)cc1` (centres unmarked) [Compound 3-26, N-(1-(4-fluorophenyl)ethyl)-5-(benzo[d]imidazol-2(3H)-one)-6H-1,3,4-thiadiazin-2-amine] returned a Kd on DYRK1A [2] of 2300 nM.

As to `O=c1[nH]c2ccc(C3=NN=C(Nc4ccccc4)SC3)cc2[nH]1` [Compound 3-28, N-phenyl-5-(benzo[d]imidazol-2(3H)-one)-6H-1,3,4-thiadiazin-2-amine], on DYRK1A [1], the inhibition at 30 µM was 39%. At DYRK1A [2], the Kd is 19000 nM and the remaining binding at 30 µM was 41%.

`O=c1[nH]c2ccc(C3=NN=C(Nc4cccc(F)c4)SC3)cc2[nH]1` [Compound 3-29, N-(3-fluorophenyl)-5-(benzo[d]imidazol-2(3H)-one)-6H-1,3,4-thiadiazin-2-amine] gave a Kd at DYRK1A [2] of 7000 nM.

As to `O=c1[nH]c2ccc(C3=NN=C(Nc4cccc(C(F)(F)F)c4)SC3)cc2[nH]1` [Compound 3-30, N-(3-trifluoromethylphenyl)-5-(benzo[d]imidazol-2(3H)-one)-6H-1,3,4-thiadiazin-2-amine], binding at DYRK1A [2] was characterised by a dissociation constant (Kd) of 14000 nM.

On to `N#Cc1cccc(NC2=NN=C(c3ccc4[nH]c(=O)[nH]c4c3)CS2)c1` [Compound 3-31, N-(3-cyanophenyl)-5-(benzo[d]imidazol-2(3H)-one)-6H-1,3,4-thiadiazin-2-amine], for which binding on DYRK1A [2] was put at a Kd of 3800 nM. This Kd is about 3.7-fold lower than that of the compound before.

In the case of `O=c1[nH]c2ccc(C3=NN=C(NCCc4ccccc4)SC3)cc2[nH]1` [Compound 3-34, N-(2-phenylethyl)-5-(benzo[d]imidazol-2(3H)-one)-6H-1,3,4-thiadiazin-2-amine], on DYRK1A [1], the inhibition at 30 µM stood at 61%. Further, on DYRK1A [2], binding was characterised by a dissociation constant (Kd) of 1600 nM and the remaining binding at 30 µM was 0.5%.

Regarding `O=c1[nH]c2ccc(C3=NN=C(NCCc4ccccn4)SC3)cc2[nH]1` [Compound 3-38, N-(2-(pyridine-1-yl)ethyl)-5-(benzo[d]imidazol-2(3H)-one)-6H-1,3,4-thiadiazin-2-amine], on DYRK1A [1], the inhibition at 30 µM is 87%. In addition, at DYRK1A [2], the Kd stood at 1600 nM and the remaining binding at 30 µM came out at 8.4%.

As for `O=c1[nH]c2ccc(C3=NN=C(NCCc4cccnc4)SC3)cc2[nH]1` [Compound 3-39, N-(2-(pyridine-3-yl)ethyl)-5-(benzo[d]imidazol-2(3H)-one)-6H-1,3,4-thiadiazin-2-amine], the Kd at DYRK1A [2] stood at 2200 nM.

As to `O=c1[nH]c2ccc(C3=NN=C(NCc4cccc5ccccc45)SC3)cc2[nH]1` [Compound 3-41, N-(1-naphthylmethyl)-5-(benzo[d]imidazol-2(3H)-one)-6H-1,3,4-thiadiazin-2-amine], the inhibition at 30 µM on DYRK1A [1] was 11%. Besides, on DYRK1A [2], the Kd was determined as 7300 nM and the remaining binding at 30 µM came to 36%.

`NC(=O)c1cccc(CNC2=NN=C(c3ccc4[nH]c(=O)[nH]c4c3)CS2)c1` [Compound 4-2, N-(3-carboxyaminobenzyl)-5-(benzo[d]imidazol-2(3H)-one)-6H-1,3,4-thiadiazin-2-amine]: the Kd at DYRK1A [2] worked out at 440 nM.

In turn, “N-(3-phenylpropyl)-5-(benzo[d]imidazol-2(3H)-one)-6H-1,3,4-thiadiazin-2-amine [Compound 3-37]” returned a Kd on DYRK1A [2] of 950 nM. This Kd is about 2.2-fold higher than that of the compound before.
